Experiments:
Assay type in all cases: functional, cell-based
[1] = test system: SK-MEL-28; test: Antitumoral activity was assayed against MEL-28 cell line; settings: Homo sapiens
[2] = test system: P388; test: Antitumoral activity was assayed against P-388 cell line; settings: Mus musculus
[3] = test system: A549; test: Antitumoral activity was assayed against A-549 cell line; settings: Homo sapiens
[4] = test system: HT-29; test: Antitumoral activity was assayed against HT-29 cell line; settings: Homo sapiens

Row | IC50 [1] | IC50 [2] | IC50 [3] | IC50 [4] | Structure (SMILES)
1 | 15.9 µM | 15.9 µM | 15.9 µM | 15.9 µM | CC1(C)CCC[C@@]2(C)C1CC[C@@]1(C)Oc3ccc(O)cc3C[C@@H]12 (some centres not stated)
2 | 3.2 µM | 0.8 µM | 3.2 µM | 3.2 µM | CC1=CCC2C(C)(C)CCC[C@]2(C)[C@H]1CC1=CC(=O)C=CC1=O (some centres not stated)
3 | 0.79 µM | 0.16 µM | 0.79 µM | 0.79 µM | CC1=CCC2C(C)(C)CCC[C@]2(C)[C@H]1Cc1cc(O)ccc1O (some centres not stated)

— ChEMBL document CHEMBL1131834, “Synthesis and antitumoral activities of marine ent-chromazonarol and related compounds” (Bioorg Med Chem Lett, 1999)
